The source of these data is patent EP0411159B1, “METHOD FOR DETERMINING ENZYMATIC ACTIVITY” (IATRON LABORATORIES, INC., priority 1989, dated 1990).

For data set [1] the following is noted: prior-art substrate; needs solubilizing auxiliary agent such as cyclodextrin or crown ether; cited from earlier work.
Data set [2] in a line: stability (decomposition) of the substrate in aqueous solution. Type of data set: physicochemical.
A short description of data set [3]: water solubility of the substrate (aqueous solution prepared).

In brackets after ≈: the same amount, converted by molar mass.

On to `CC(=O)N[C@H]1[C@H](Oc2ccc([N+](=O)[O-])cc2Cl)O[C@H](CO)[C@@H](O)[C@@H]1O` [2-chloro-4-nitrophenyl-N-acetyl-β-D-glucosaminide], for which the “solubility in water (in words)” value in data set [1] is “difficult to dissolve in water”.
The solubility is the concentration that dissolves in the medium under given conditions. Read a high solubility as a readily soluble substance. On to `CC(=O)N[C@H]1[C@H](Oc2ccc([N+](=O)[O-])c([N+](=O)[O-])c2)O[C@H](CO)[C@@H](O)[C@@H]1O` [3,4-DNG, 3,4-dinitrophenyl-N-acetyl-β-D-glucosaminide], for which the degraded at 1 h in data set [2] (enzyme reaction conditions (pH 5, 37°C) for one hour, read-out: decomposition ratio) came to 1.5%. Besides, the “stability of aqueous solution” value in data set [2] (under ice-cooling) is “stable”. The same compound registered a degraded in data set [2] (water, aqueous solution left to stand at room temperature overnight) of around 1%. The compound further gave a solubility in data set [3] of 12 mM (≈ 4650 µg/mL).
